# Data from PubChem BioAssay (NCI).
#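 Method: 48-hour compound exposure of cells in 96-well plates, five concentrations, linear interpolation of endpoints. Abbreviation: GI50, concentration required for 50% inhibition of growth. TGI: total growth inhibition.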
# Columns and labels:
# Assay in all cases: DTP human tumour cell line panel, 48 h
# 786-0 renal = tested on: 786-0 renal
# A498 renal = tested on: A498 renal
# A549 NSCLC = tested on: A549 NSCLC
# ACHN renal = tested on: ACHN renal
# BT-549 breast = tested on: BT-549 breast
# CAKI-1 renal = tested on: CAKI-1 renal
# CCRF-CEM leukemia = tested on: CCRF-CEM leukemia
# COLO 205 colon = tested on: COLO 205 colon
# DU-145 prostate = tested on: DU-145 prostate
# EKVX NSCLC = tested on: EKVX NSCLC
# HCC-2998 colon = tested on: HCC-2998 colon
# HCT-116 colon = tested on: HCT-116 colon
# HCT-15 colon = tested on: HCT-15 colon
# HL-60(TB) leukemia = tested on: HL-60(TB) leukemia
# HOP-62 NSCLC = tested on: HOP-62 NSCLC
# HOP-92 NSCLC = tested on: HOP-92 NSCLC
# HS 578T breast = tested on: HS 578T breast
# HT29 colon = tested on: HT29 colon
# IGROV1 ovarian = tested on: IGROV1 ovarian
# K-562 leukemia = tested on: K-562 leukemia
# KM12 colon = tested on: KM12 colon
# LOX IMVI melanoma = tested on: LOX IMVI melanoma
# M14 melanoma = tested on: M14 melanoma
# MALME-3M melanoma = tested on: MALME-3M melanoma
# MCF7 breast = tested on: MCF7 breast
# MDA-MB-231 breast = tested on: MDA-MB-231 breast
# MDA-MB-435 = tested on: MDA-MB-435
# MOLT-4 leukemia = tested on: MOLT-4 leukemia
# NCI-H226 lung = tested on: NCI-H226 lung
# NCI-H23 lung = tested on: NCI-H23 lung
# NCI-H460 lung = tested on: NCI-H460 lung
# NCI-H522 lung = tested on: NCI-H522 lung
# NCI/ADR-RES ovarian = tested on: NCI/ADR-RES ovarian
# OVCAR-3 ovarian = tested on: OVCAR-3 ovarian
# OVCAR-4 ovarian = tested on: OVCAR-4 ovarian
# OVCAR-5 ovarian = tested on: OVCAR-5 ovarian
# OVCAR-8 ovarian = tested on: OVCAR-8 ovarian
# PC-3 prostate = tested on: PC-3 prostate
# RPMI-8226 leukemia = tested on: RPMI-8226 leukemia
# RXF 393 renal = tested on: RXF 393 renal
# SF-268 CNS = tested on: SF-268 CNS
# SF-295 CNS = tested on: SF-295 CNS
# SF-539 CNS = tested on: SF-539 CNS
# SK-MEL-2 melanoma = tested on: SK-MEL-2 melanoma
# SK-MEL-28 melanoma = tested on: SK-MEL-28 melanoma
# SK-MEL-5 melanoma = tested on: SK-MEL-5 melanoma
# SK-OV-3 ovarian = tested on: SK-OV-3 ovarian
# SN12C renal = tested on: SN12C renal
# SNB-19 CNS = tested on: SNB-19 CNS
# SNB-75 CNS = tested on: SNB-75 CNS
# SR leukemia = tested on: SR leukemia
# SW-620 colon = tested on: SW-620 colon
# T-47D breast = tested on: T-47D breast
# TK-10 renal = tested on: TK-10 renal
# U251 CNS = tested on: U251 CNS
# UACC-257 melanoma = tested on: UACC-257 melanoma
# UACC-62 melanoma = tested on: UACC-62 melanoma
# UO-31 renal = tested on: UO-31 renal
smiles,measurement,setting,value
COc1cc(/C=C2\C(=O)Nc3cc(C)c(O)cc32)cc(OC)c1OC,GI50,786-0 renal,10.4 µM
same,TGI,786-0 renal,23.5 µM
same,GI50,A498 renal,8.5 µM
same,TGI,A498 renal,25.4 µM
same,GI50,A549 NSCLC,6.13 µM
same,TGI,A549 NSCLC,> 79.6 µM
same,GI50,ACHN renal,8.27 µM
same,TGI,ACHN renal,24.6 µM
same,GI50,BT-549 breast,1.86 µM
same,TGI,BT-549 breast,6.26 µM
same,GI50,CAKI-1 renal,2.98 µM
same,TGI,CAKI-1 renal,9.66 µM
same,GI50,CCRF-CEM leukemia,2.89 µM
same,TGI,CCRF-CEM leukemia,18.3 µM
same,GI50,COLO 205 colon,6.09 µM
same,TGI,COLO 205 colon,22.8 µM
same,GI50,DU-145 prostate,3.67 µM
same,TGI,DU-145 prostate,17.1 µM
same,GI50,EKVX NSCLC,4.08 µM
same,TGI,EKVX NSCLC,39 µM
same,GI50,HCC-2998 colon,5.18 µM
same,TGI,HCC-2998 colon,17.5 µM
same,GI50,HCT-116 colon,4.07 µM
same,TGI,HCT-116 colon,15.8 µM
same,GI50,HCT-15 colon,2.84 µM
same,TGI,HCT-15 colon,14.5 µM
same,GI50,HL-60(TB) leukemia,1.74 µM
same,TGI,HL-60(TB) leukemia,5.84 µM
same,GI50,HOP-62 NSCLC,11.7 µM
same,TGI,HOP-62 NSCLC,37.4 µM
same,GI50,HOP-92 NSCLC,5.61 µM
same,TGI,HOP-92 NSCLC,> 100 µM
same,GI50,HS 578T breast,2.18 µM
same,TGI,HS 578T breast,9.93 µM
same,GI50,HT29 colon,4.01 µM
same,TGI,HT29 colon,> 39.6 µM
same,GI50,IGROV1 ovarian,5.35 µM
same,TGI,IGROV1 ovarian,21.3 µM
same,GI50,K-562 leukemia,1.67 µM
same,TGI,K-562 leukemia,10.4 µM
same,GI50,KM12 colon,2.62 µM
same,TGI,KM12 colon,11.4 µM
same,GI50,LOX IMVI melanoma,3.66 µM
same,TGI,LOX IMVI melanoma,14.4 µM
same,GI50,M14 melanoma,4.45 µM
same,TGI,M14 melanoma,17.3 µM
same,GI50,MALME-3M melanoma,0.454 µM
same,TGI,MALME-3M melanoma,9.11 µM
same,GI50,MCF7 breast,2.44 µM
same,TGI,MCF7 breast,26.4 µM
same,GI50,MDA-MB-231 breast,3.25 µM
same,TGI,MDA-MB-231 breast,23.1 µM
same,GI50,MDA-MB-435,1.52 µM
same,TGI,MDA-MB-435,3.7 µM
same,GI50,MOLT-4 leukemia,3.32 µM
same,TGI,MOLT-4 leukemia,16.7 µM
same,GI50,NCI-H226 lung,15.6 µM
same,TGI,NCI-H226 lung,46.5 µM
same,GI50,NCI-H23 lung,3.61 µM
same,TGI,NCI-H23 lung,23.7 µM
same,GI50,NCI-H460 lung,3.2 µM
same,TGI,NCI-H460 lung,11.7 µM
same,GI50,NCI-H522 lung,2.59 µM
same,TGI,NCI-H522 lung,12.1 µM
same,GI50,NCI/ADR-RES ovarian,5.01 µM
same,TGI,NCI/ADR-RES ovarian,48.1 µM
same,GI50,OVCAR-3 ovarian,3.62 µM
same,TGI,OVCAR-3 ovarian,12.8 µM
same,GI50,OVCAR-4 ovarian,8.23 µM
same,TGI,OVCAR-4 ovarian,> 67.7 µM
same,GI50,OVCAR-5 ovarian,13.5 µM
same,TGI,OVCAR-5 ovarian,30.4 µM
same,GI50,OVCAR-8 ovarian,7.33 µM
same,TGI,OVCAR-8 ovarian,> 67.3 µM
same,GI50,PC-3 prostate,4.32 µM
same,TGI,PC-3 prostate,> 100 µM
same,GI50,RPMI-8226 leukemia,1.47 µM
same,TGI,RPMI-8226 leukemia,4.41 µM
same,GI50,RXF 393 renal,3.46 µM
same,TGI,RXF 393 renal,13.4 µM
same,GI50,SF-268 CNS,5.34 µM
same,TGI,SF-268 CNS,36 µM
same,GI50,SF-295 CNS,6.03 µM
same,TGI,SF-295 CNS,26.3 µM
same,GI50,SF-539 CNS,5.41 µM
same,TGI,SF-539 CNS,19.6 µM
same,GI50,SK-MEL-2 melanoma,2.97 µM
same,TGI,SK-MEL-2 melanoma,14.5 µM
same,GI50,SK-MEL-28 melanoma,7.59 µM
same,TGI,SK-MEL-28 melanoma,23 µM
same,GI50,SK-MEL-5 melanoma,2.52 µM
same,TGI,SK-MEL-5 melanoma,9.17 µM
same,GI50,SK-OV-3 ovarian,7.34 µM
same,TGI,SK-OV-3 ovarian,54.1 µM
same,GI50,SN12C renal,6.07 µM
same,TGI,SN12C renal,23.1 µM
same,GI50,SNB-19 CNS,10.6 µM
same,TGI,SNB-19 CNS,34.3 µM
same,GI50,SNB-75 CNS,3.03 µM
same,TGI,SNB-75 CNS,> 30 µM
same,GI50,SR leukemia,0.857 µM
same,TGI,SR leukemia,5.84 µM
same,GI50,SW-620 colon,4.08 µM
same,TGI,SW-620 colon,15.9 µM
same,GI50,T-47D breast,3.93 µM
same,TGI,T-47D breast,37.9 µM
same,GI50,TK-10 renal,12.8 µM
same,TGI,TK-10 renal,40.4 µM
same,GI50,U251 CNS,3.54 µM
same,TGI,U251 CNS,16.1 µM
same,GI50,UACC-257 melanoma,13.5 µM
same,TGI,UACC-257 melanoma,42.7 µM
same,GI50,UACC-62 melanoma,3.82 µM
same,TGI,UACC-62 melanoma,16.8 µM
same,GI50,UO-31 renal,4.94 µM
same,TGI,UO-31 renal,41.6 µM
